Experimental data taken from patent US7429602B2, “Treating conjunctivitis by topically administering an epinastine solution to the conjunctiva” (Boehringer Ingelheim Pharma GmbH & Co. Kg, priority 1999, dated 2008).

System: conjunctiva (eosinophils, neutrophils, mast cell degranulation)
Details: conjunctiva examined two hours after ovalbumin
Experimental: 72 hours after the rats have been sensitized by injecting antiserum into the eyelids of the test animals, a fresh provocation was induced in them by intravenous administration of ovalbumin. Some of the experimental animals were pretreated by the administration of solution containing epinastine according to the invention into the conjunctival sac 15 minutes before the ovalbumin is administered. Two hours after the administration of ovalbumin the experimental animals were killed and the conjunctiva was investigated for its content of eosinophils and neutrophils and the mast cell granulation was determined.

[1] = epinastine solution into the conjunctival sac 15 minutes before i.v. ovalbumin, p<0.01

## NC1=NCC2c3ccccc3Cc3ccccc3N12 (stereo not drawn) [epinastine, 3-amino-9,13b-dihydro-1H-dibenz-[c,f]imidazol[1,5-a]azepine]
Epinastine solution 0.05-0.5% into the conjunctival sac 15 minutes before i.v. ovalbumin
  content of eosinophils in conjunctiva: significantly lower
[1]
  content of lymphocytes in conjunctiva: significantly lower
  inhibition of mast cell degranulation: roughly 35%
